Tests used:
[1] = system: HIV-1GRL-04810^RP18, and HIV-1GRL-05010^RP10; test: p24 assay, the two GRL-selected variants taken together; assay type: cell-based; settings: Human immunodeficiency virus 1, read-out: EC50 values against HIV-1GRL-04810^RP18 and HIV-1GRL-05010^RP10
Experimental: (§1) The susceptibility of HIV-1LAI to various drugs was determined as previously described with minor modifications. Briefly, MT-2 cells (10^4/ml) were exposed to 100 50% tissue culture infectious doses (TCID50) of HIV-1LAI in the presence or absence of various concentrations of drugs in 96-well microculture plates and were incubated at 37° C. for 7 days. After 100 μl of the medium was removed from each well, 3-(4,5-dimetylthiazol-2-yl)-2,5-diphenyltetrazolium bromide (MTT) solution (10 μl, 7.5 mg/ml in phosphate-buffered saline) was added to each well in the plate, followed by incubation at 37° C. for 2 h. […] All assays were performed in duplicate or triplicate. […] To determine the sensitivity of primary HIV-1 isolates to drugs, phytohemagglutinin-stimulated peripheral blood mononuclear cells (PHA-PBMC) (10^6/ml) were exposed to 50 TCID50 of each primary HIV-1 isolate and cultured in the presence or absence of various concentrations of drugs in 10-fold serial dilutions in 96-well microculture plates. In determining the drug susceptibility of certain laboratory HIV-1 strains, MT-4 cells were employed as target cells as previously described with minor modifications. In brief, MT-4 cells (10^5/ml) were exposed to 100 TCID50 of drug-resistant HIV-1 strains in the presence or absence of various concentrations of drugs and were incubated at 37° C. On day 7 of culture, the supernatants were harvested and the amounts of p24 Gag protein were determined by using a fully automated chemiluminescent enzyme immunoassay system (Lumipulse F: Fujirebio Inc., Tokyo). […] All assays were performed in duplicate or triplicate. PHA-PBMs were derived from a single donor in each independent experiment. Thus, for obtaining the data, three different donors were recruited.

HIV-1GRL05010^RP10 = test: microbe, parasite or virus in culture; assay type: cell-based; settings: Human immunodeficiency virus 1, MT4, read-out: EC50 HIV-1GRL05010^RP10
Experimental: as §1
(§2) The amounts of p24 were measured every two days for up to 7 days.

HIV-1GRL04810^RP18 = test: microbe, parasite or virus in culture; assay type: cell-based; settings: Human immunodeficiency virus 1, MT4, read-out: EC50 HIV-1GRL04810^RP18
Experimental: as §1, §2

HIV-1LPV^R5μM = test: microbe, parasite or virus in culture; assay type: cell-based; settings: Human immunodeficiency virus 1, MT4, read-out: EC50 HIV-1LPV^R5μM
Experimental: as §1

HIV-1SQV^R5μM = test: microbe, parasite or virus in culture; assay type: cell-based; settings: Human immunodeficiency virus 1, MT4, read-out: EC50 HIV-1SQV^R5μM
Experimental: as §1

HIV-1APV^R5μM = test: microbe, parasite or virus in culture; assay type: cell-based; settings: Human immunodeficiency virus 1, MT4, read-out: EC50 HIV-1APV^R5μM
Experimental: as §1

HIV-1ATV^R5μM = test: microbe, parasite or virus in culture; assay type: cell-based; settings: Human immunodeficiency virus 1, MT4, read-out: EC50 HIV-1ATV^R5μM
Experimental: as §1

[2] = Cytotoxicity (CC50), MTT assay; assay type: cell-based; settings: human; 50% cytotoxicity; read-out: CC50
Experimental: The susceptibility of HIV-1LAI to various drugs was determined as previously described with minor modifications. Briefly, MT-2 cells (10^4/ml) were exposed to 100 50% tissue culture infectious doses (TCID50) of HIV-1LAI in the presence or absence of various concentrations of drugs in 96-well microculture plates and were incubated at 37° C. for 7 days. After 100 μl of the medium was removed from each well, 3-(4,5-dimetylthiazol-2-yl)-2,5-diphenyltetrazolium bromide (MTT) solution (10 μl, 7.5 mg/ml in phosphate-buffered saline) was added to each well in the plate, followed by incubation at 37° C. for 2 h. […] All assays were performed in duplicate or triplicate. […] In determining the drug susceptibility of certain laboratory HIV-1 strains, MT-4 cells were employed as target cells as previously described with minor modifications. In brief, MT-4 cells (10^5/ml) were exposed to 100 TCID50 of drug-resistant HIV-1 strains in the presence or absence of various concentrations of drugs and were incubated at 37° C. On day 7 of culture, the supernatants were harvested and the amounts of p24 Gag protein were determined by using a fully automated chemiluminescent enzyme immunoassay system (Lumipulse F: Fujirebio Inc., Tokyo). […] All assays were performed in duplicate or triplicate. PHA-PBMs were derived from a single donor in each independent experiment. Thus, for obtaining the data, three different donors were recruited.

HIV-1MDR/MM = test: microbe, parasite or virus in culture; assay type: cell-based; settings: Human immunodeficiency virus 1, read-out: EC50 HIV-1MDR/MM (R5)
Experimental: (§3) All primary HIV-1 strains were passaged once or twice in 3-day-old phytohemagglutinin activated peripheral blood mononuclear cells (PHA-PBM), and the culture supernatants were stored at −80° C. until use.
as §1

HIV-1MDR/JSL = test: microbe, parasite or virus in culture; assay type: cell-based; settings: Human immunodeficiency virus 1, read-out: EC50 HIV-1MDR/JSL (R5)
Experimental: as §3, §1

HIV-1MDR/G = test: microbe, parasite or virus in culture; assay type: cell-based; settings: Human immunodeficiency virus 1, read-out: EC50 HIV-1MDR/G (X4)
Experimental: as §3, §1

HIV-1MDR/TM = test: microbe, parasite or virus in culture; assay type: cell-based; settings: Human immunodeficiency virus 1, read-out: EC50 HIV-1MDR/TM (X4)
Experimental: as §3, §1

HIV-1MDR/C = test: microbe, parasite or virus in culture; assay type: cell-based; settings: Human immunodeficiency virus 1, read-out: EC50 HIV-1MDR/C (X4)
Experimental: as §3, §1

HIV-1MDR/B = test: microbe, parasite or virus in culture; assay type: cell-based; settings: Human immunodeficiency virus 1, read-out: EC50 HIV-1MDR/B (X4)
Experimental: as §3, §1

HIV-1ERS104pre = test: p24 Gag production inhibition in PHA-PBMs, wild-type clinical isolate; assay type: cell-based; settings: Human immunodeficiency virus 1; PHA-PBMs, p24 Gag endpoint; read-out: EC50 HIV-1ERS104pre (X4)
Experimental: as §3, §1

HIV-1NL4-3 = test: p24 Gag production inhibition in MT-4 cells, wild-type laboratory strain; assay type: cell-based; settings: Human immunodeficiency virus 1, MT4; MT-4 cells, p24 Gag endpoint; read-out: EC50 HIV-1NL4-3
Experimental: as §1

HIV-1LAI = test: Antiviral activity of brain-side medium from the BBB assay, MTT assay in MT-2 cells; assay type: cell-based; settings: HIV-1LAI
Experimental: The “brain-side” of the medium containing a compound collected in the BBB in vitro assay, was subjected to antiviral assays. Two HIV-1 isolates were employed, HIV-1LAI (Panel A) and HIV-1ERS104pre (Panel B). […] Dilution ranges were between 10-fold and 10,000-fold, and the percentage of viral inhibition was used as an endpoint. […] Assays were conducted in duplicate and error bars show standard deviations.
The assay was carried out using 10, 100, 1000 and 10000 times-diluted brain-side stocks of compounds.

[3] = system: triple culture of rat-derived astrocytes, pericytes and monkey-derived endothelial cells; test: Apparent BBB permeability coefficient, in vitro BBB model (BBB Kit); settings: 100 μM on luminal (blood) side, 30 min, brain side measured at 230 nm
Experimental: (§4) The BBB Kit™ was kept at −80° C. until thawing on day 0 of the experiments. Nutritional medium was added to both brain and blood sides of the wells. This solution consists of DMEM F-12 medium with FCS 10% v/v, heparin 100 μg/ml, basic fibroblast growth factor (bFGF) 1.5 ng/ml, insulin 5 μg/ml, transferrin 5 μg/ml, sodium selenite 5 ng/ml, hydrocortisone 500 nM and gentamycin 50 μg/ml. Fresh medium was added 3 hours after thawing following the manufacturer's instructions, and 24 hours later. The plates were incubated at 37° C. until day 4 of the experiment when the condition of astrocytes was checked under a light microscope. Following this, the integrity of the collagen-coated membrane was verified by the measurement of the transendothelial electrical resistance (TEER) using an ohmmeter provided by the manufacturer. […] Detailed information regarding the components of the BBB Kit as well as its mechanisms can be seen by accessing the manufacturer's website http://www.pharmacocell.co.jp/en/bbb/index_e.html.
(§5) Standard curves were generated for each compound on a light spectrophotometer as previously described. 100 μM of each compound was added to the luminal (blood side) of the wells, incubated at 37° C. for 30 minutes and then, the amount of drug that crossed the in vitro BBB was collected and measured under a light spectrophotometer at 230 nanometer absorbances.
(§6) Papp was calculated using the following mathematical formula: […]
(§7) This model (BBB Kit™) is thought to represent an in vitro BBB model for drug transport assays, permitting an adequate cross-talk of the cell lines involved and provide a way to test an apparent passage of small molecules across the BBB as previously described by Nakagawa et al. (41). […] The concentrations of each compound that permeated into the abluminal interface (termed “brain side”) were determined using a spectrophotometer, 30 min after the addition of each drug to the wells.
(§8) The mathematical formula used for the calculation of Papp is described in Materials and Methods.

[4] = as above; settings: rat and monkey
Experimental: as §4, §5, §6, §7, §8

`CC(C)CN(C[C@@H](O)[C@H](Cc1ccccc1)NC(=O)O[C@H]1CCOC1)S(=O)(=O)c1ccc(N)cc1` [APV, Amprenavir] showed an EC50 [1] of over 1000 nM, an EC50 (HIV-1GRL05010^RP10) of over 1000 nM and an EC50 (HIV-1GRL04810^RP18) of over 1000 nM. For the same compound, the EC50 (HIV-1LPV^R5μM) was 33 nM, the EC50 (HIV-1SQV^R5μM) was 435 nM and the EC50 (HIV-1APV^R5μM) was over 1000 nM. The EC50 (HIV-1ATV^R5μM) was over 1000 nM, the CC50 at 7 days [2] was over 100 µM and the EC50 (HIV-1MDR/MM) was 270 nM. The EC50 (HIV-1MDR/JSL) was 630 nM, the EC50 (HIV-1MDR/G) was 310 nM and the EC50 (HIV-1MDR/TM) was 328 nM. The EC50 (HIV-1MDR/C) was 210 nM, the EC50 (HIV-1MDR/B) was 490 nM and the EC50 (HIV-1ERS104pre) was 29.5 nM. It also gave an EC50 (HIV-1NL4-3) of 81 nM.
For `CC(C)(C)NC(=O)[C@@H]1CN(Cc2cccnc2)CCN1C[C@@H](O)C[C@@H](Cc1ccccc1)C(=O)N[C@H]1c2ccccc2C[C@H]1O` [IDV, Indinavir], the “suppression levels of brain-side preparations compared (FIG. 5A)” value (HIV-1LAI) was “less than those of GRL-04810^brain and GRL-05010^brain”.
With `Cc1cccc(C)c1OCC(=O)N[C@@H](Cc1ccccc1)[C@@H](O)C[C@H](Cc1ccccc1)NC(=O)[C@H](C(C)C)N1CCCNC1=O` [LPV, Lopinavir] the EC50 (HIV-1LPV^R5μM) was over 1000 nM, the CC50 at 7 days [2] was 26.8 ± 0.9 µM and the EC50 (HIV-1MDR/JSL) was over 1000 nM. It also gave an EC50 (HIV-1ERS104pre) of 33 nM and an EC50 (HIV-1NL4-3) of 35 nM.
For `Cn1c(=O)c2c(ncn2C)n(C)c1=O` [caffeine], the “Final abluminal tracer concentration” value [3] was 6.60 µM and the Papp at 30 min, 100 μM [4] was 100 ×10⁻⁶ cm/s.
